Data published in the NIST ThermoML archive (doi:10.1016/j.jct.2019.01.004).
Numbers after ± are expanded uncertainties.

Details: Liquid, Ebulliometric method (Recirculating still)

**Q.** For CO [methanol], which “vapor or sublimation pressure” value (337.68 K) is on record?
**A.** 101.3 ± 3.7 kPa

**Q.** Which “vapor or sublimation pressure” value (352.62 K) does the source give for CCC(=O)OC [methyl propanoate] here?
**A.** 101.3 ± 3.7 kPa
